Experimental data reported in patent US20140271742A1, “SKIN TANNING USING PEPTIDES AND OTHER COMPOSITIONS” (priority 2013, published 2014).

Assays:
[1] = Laser Doppler capillary blood flow in humans, 10,000 ppm NO in closed Hilltop chamber (Example 5); type: in vivo, human; conditions: applied to the skin at 1/10% in alcohol
Text: The formulation used in these studies contained nitric oxide dispersed in a lipid matrix. […] Nitric oxide is a very rapid acting molecule, and these studies used a system that employed laser Doppler with a covered chamber. The formulation was placed into the chamber and then attached to the skin by an adhesive layer on the covering. This provided a stable measuring device as determined by multiple normal evaluations of the capillary blood flow without treatment of nitric oxide.
A known positive control, methyl nicotinate, was applied to the skin at a concentration of 1/10% in alcohol. […] The vascular dynamics are such that when the blood vessels dilate physical parameters follow Bernoulli's law. This states that as one increases the diameter of a tube containing a liquid to flow will increase but the pressure and the speed of the liquid will decrease. The laser Doppler device accurately measured these parameters.
The test product was labeled as 10,000 ppm NO (nitric oxide). The study participants had 100 mg of the test product applied in a closed Hilltop chamber on the forearm. […]
A Moor Instruments DRT4 Laser Doppler Blood Flow Monitor (Devon, England) was used in these studies. The laser Doppler technique measured blood flow in the microcapillaries of the skin that are close to the skin surface and the blood flow in underlying arterioles and venules that help to regulate skin temperature. […]

[2] = Laser Doppler circulation in five human subjects, NO creams and controls (Example 8); type: in vivo; conditions: positive control formulation containing 0.1% methyl nicotinate
Text: This example illustrates delivery of nitric oxide formulations to five human subjects, using procedures and formulations similar to those discussed in Example 5. Each person served as their own control for the testing. A Moor Instruments Laser Doppler was used to determine circulation. […] The formulations used produce positive, almost immediate results when applied to the skin which, in these studies, was manifested by vasodilatation of the cutaneous vascular system.
For each subject, the following creams were applied: a negative control formulation (containing no NO), 0.010 gram of a 10,000 ppm NO formulation, 0.020 gram of a 10,000 ppm NO formulation, and a positive control formulation containing 0.1% methyl nicotinate. The formulations were prepared using procedures similar to those discussed in Example 1.

SMILES: COC(=O)c1cccnc1 [methyl nicotinate]
- Laser Doppler response of positive control [1]: rapid response typical of the vasodilator
- Vasodilatation (laser Doppler) [2]: vasodilatation was observed
